Experimental findings from patent US20160214941A1, “Compounds for lnhibition of Unregulated Cell Growth” (GODAVARI BIOREFINERIES LIMITED, priority 2013, published 2016) are described below.

Common to all, as to assay type: cell-based
The test system of one test is Colo205. Put plainly: In vitro colorimetric cell death assay (MTT assay). Conditions: Colo205 (colon cancer), 48 hours. The method, then:
(§1) MTT assay was carried for assessing cell viability where the cells were grown in two-dimensional surface. The procedure for the assay is as follows. Cancer cells were plated in 96 well plates as per predetermined plating efficiency. The plates were incubated for 24 hours in a 5% CO2 atmosphere at 37° C., a range of concentrations of the compound of the present invention was added to the wells, the plates were incubated further for 48 hours in a 5% CO2 atmosphere, the plates were centrifuged twice at 3000 rpm for 3 minutes, the supernatant fluid was discarded, 100 uL of 0.5 mg/mL MIT solution was added and the plates were incubated for 4 hours in a 5% CO2 atmosphere at 37° C. The plates were then centrifuged twice at 3000 rpm for 3 minutes, supernatant was aspirated very carefully, 200 uL DMSO was added to each well to solubilize MTT crystals and mixed well by shaking the plates, the plates were incubated for 10 minutes in a 5% CO2 atmosphere at 37° C., the plates were placed on the shaker of an ELISA plate reader and the absorbance at 570 nm was measured, then the percentage of viable cells remaining was calculated by first subtracting the background absorbance then comparing to the absorbance of a non-drug-treated cell sample, and the results were plotted on a graph to determine the IC50 for the compound as known in the art. The reference drug used was Cisplatin.

Another test deals with Colo320. Put plainly: In vitro colorimetric cell death assay (MTT assay). The conditions noted are these: Colo320 (colon cancer), 48 hours. The procedure:
as §1
In general terms: Tetrazolium dyes change colour on reduction, which living cells bring about.

Test [1] deals with HCT-15. Put plainly: In vitro colorimetric cell death assay (MTT assay). Conditions: HCT-15 (colon cancer), 48 hours. The method, then: as §1
Another test deals with Hep3B. Put plainly: In vitro colorimetric cell death assay (MTT assay). The conditions noted are these: Hep3B (hepatic cancer), 48 hours. The method, then:
as §1

Test [2] relates to L929. Put plainly: In vitro colorimetric cell death assay (MTT assay). The conditions noted are these: L929 (fibroblast), 48 hours. The procedure: as §1
Test [3] concerns LnCaP. Put plainly: In vitro colorimetric cell death assay (MTT assay). Conditions: LnCaP (prostate cancer), 48 hours. The method, then:
as §1

For the next test, the system named is NCIH23. Put plainly: In vitro colorimetric cell death assay (MTT assay). The conditions noted are these: NCIH23 (lung cancer), 48 hours. The procedure: as §1
The test system of test [4] is SiHa. Put plainly: In vitro colorimetric cell death assay (MTT assay). The conditions noted are these: SiHa (cervical cancer), 48 hours. The procedure:
as §1

For test [5], the system named is T47D. Put plainly: In vitro colorimetric cell death assay (MTT assay). Conditions: T47D (breast cancer), 48 hours. The procedure:
as §1

A further test relates to MDA MB 231 cell line. Put plainly: In vitro 3D sphere forming stem cell assay. The method, then: In Vitro 3D Sphere Forming Stem Cell Assay Compounds of Formula III & IV were evaluated in an in vitro 3D sphere forming stem cell assay as described by Rajasekhar, V K, Analytical Methods for Cancer Stem Cells. Methods in Molecular Biology, 2007, Volume 407, 83-95.
An exemplary procedure for the in vitro 3D sphere forming stem cell assay is described as follows. Breast Cancer Cells were grown in two dimensions on a plastic substrate, harvested in suspension in serum-free media, then the cells in the sample were trypsinized and a single cell suspension was formed by passing through a cell strainer. The cells were diluted according to the predetermined plating efficiency for the cell line being studied by suspending the cells in stem cell culture medium. 100 uL of this suspension was added into each well of a 96 well suspension plate, and the plate was incubated at 37° C. in 5% CO2 atmosphere for 24 hours, then 2 uL of appropriate concentrations of the drugs was added into each respective well along with 100 uL of stem cell culture medium, and the plates incubated at 37° C. under 5% CO2 atmosphere for 72 hours. 2.5 uL of the appropriate drug concentration (Formula III and Formula IV) of was then added to each respective well along with 50 uL of stem cell culture medium, then the plates incubated at 37° C. under 5% CO2 atmosphere for 72 hours. 3 uL of the appropriate drug concentration was added to each respective well along with 50 uL of stem cell culture medium, then incubated at 37° C. under 5% CO2 atmosphere for 72 hours, the spheres formed were observed under a microscope then counted and scored by size.
The number in each box is the total number of spheres formed in the presence of either cisplatin, compound of Formula III or compound of Formula IV at each drug concentration. GC refers to a growth control performed in the absence of drug or solvent (DMSO). GCD refers to a growth control performed in the absence of drug, but in the presence of DMSO.

The test system of a further test is DU145. Put plainly: In vitro soft agar colony forming growth assay. Conditions: DU145, one week. The procedure: (§2) Compounds of Formula IV were evaluated in an in vitro soft agar colony forming growth inhibition assay as described by Lieber, M M, and Kovach, J S. Soft agar colony formation assay for chemotherapeutic sensitivity of human solid tumors. Mayo Clin Proc 1982; 57: 527-528 and Tanigawa, N, Kern, D H, Kikasa, Y, and Morton, D L. Rapid assay for evaluating the chemosensitivity of human tumors in soft agar culture. Cancer Res 1982; 42: 2159-2164.
(§3) An exemplary procedure for the in vitro soft agar colony forming growth inhibition assay is as follows.

For test [6], the system named is HCT-15. Put plainly: In vitro soft agar colony forming growth assay. The conditions noted are these: HCT-15, one week. The procedure:
as §2, §3

Test [7] relates to L929. Put plainly: In vitro soft agar colony forming growth assay. The conditions noted are these: L929, one week. The method, then: as §2, §3
The subject of test [8] is LnCaP. Put plainly: In vitro soft agar colony forming growth assay. The conditions noted are these: one week. The method, then:
as §2, §3

In the next test the test system is PC3. Put plainly: In vitro soft agar colony forming growth assay. The conditions noted are these: PC3, one week. The method, then: as §2, §3
Test [9] has as its system SiHa. Put plainly: In vitro soft agar colony forming growth assay. Conditions: one week. The procedure:
as §2, §3

Test [10] deals with T47D. Put plainly: In vitro soft agar colony forming growth assay. Conditions: one week. The procedure: as §2, §3
Test [11] has as its system PC3 (Prostrate Cancer) cells. Put plainly: CD44 and CD24 expression on PC3 cells by Flow Cytometry. Conditions: 48 hours. The method, then:
A study was conducted to determine the effect of compound of Formula IV and Cisplatin on CD44 and CD24 expression on PC3 (Prostrate Cancer) cells by Flow Cytometry. PC3 cells (0.35×106) were cultured in R.P.M.I (Roswell Park Memorial Institute Medium)-1640 cell culture medium with 10% F.B.S (Fetal Bovine Serum) on 60 mm TC (Tissue Culture) plates. Cells were exposed to IC10 drug concentration of Cisplatin & IC10 drug concentration of compound of Formula IV in duplicates. Similarly other sets were exposed to IC25 drug concentration of Cisplatin & compound of Formula IV in duplicates. IC10 and IC25 drug concentrations were calculated as per MTT results. All the sets were incubated at 37° C., 5% CO2 for 48 hours. After 48 hours, cells were observed under the microscope. Cells were trypsinised, washed with D.P.B.S. (Dulbecco's Phosphate Buffered Saline) and 50 μL of cells were taken for each set and 5 μL of each of CD24 and CD44 antibodies were added. CD24-FITC (Fluorescein isothiocyanate) labeled & CD44-PE (Phycoerythrin) labeled was used for the study. The sets were incubated for 45 minutes at 4° C. in dark for proper binding of antibodies. After incubation the cells were washed with 200 μL of D.P.B.S., supernatant was discarded and the cells were finally suspended in 300 μL of FACS buffer (4% F.B.S in D.P.B.S.). […]
On the technique in general: A flow cytometer gives signals particle by particle.

As usually defined, the IC50 is the midpoint of a concentration-inhibition curve. High values mean weaker potency in that assay, low ones greater potency in that assay. For the compound `N.N.[Cl][Pt][Cl]` [Cisplatin], the IC50 in the test with Colo205 amounted to 44.3 µM; in the test with Colo320, 38.3 µM; with HCT-15 [1], 49.1 µM; with Hep3B, 37.6 µM; in the test on L929 [2], 38 µM; in the test with LnCaP [3], 38.4 µM. Further, the IC50 with NCIH23 came out at 45.7 µM; with SiHa [4], 43.2 µM; with T47D [5], 95.5 µM; in the test with DU145 it was 33.1 µM; in the test on HCT-15 [6] it was 40 µM; with L929 [7], 9.44 µM. Besides, the concentration for half-maximal inhibition (IC50) came to 31.6 µM with LnCaP [8], 52.5 µM in the test with PC3, 19.5 µM in the test with SiHa [9] and 39.8 µM in the test with T47D [10]. The “# of 3D Spheres Formed (±SD)” value is recorded as 35(±4) in the test on MDA MB 231 cell line (MDAMB 231, 1.1 uM); 24(±2) in the test with MDA MB 231 cell line (MDAMB 231, 11 uM); 16(±2) in the test with MDA MB 231 cell line (MDAMB 231, 110 uM). In [11] (IC10 drug concentration), the “effect on cell / CD44 population” value is listed as “most of the cells remain unaffected”. Also, in [11] (IC25 drug concentration), the “effect on CD44 cell population” value was “good number of CD44 cell population surviving”.
Take `COc1ccc(/C=C/C(=O)c2cccc(Nc3c4ccc(Cl)cc4nc4ccc(OC)cc34)c2)cc1` [Formula III, 1-(3-(6-chloro-2-methoxyacridin-9-ylamino)phenyl)-3-(4-methoxyphenyl)prop-2-en-1-one]: the “sphere reduction as compared to standard drug Cisplatin” value in the test with MDA MB 231 cell line (MDA MB 231) was “Significant sphere reduction”. The “# of 3D Spheres Formed (±SD)” value with MDA MB 231 cell line (MDAMB 231, 1.1 uM) is reported as 15(±2); with MDA MB 231 cell line (MDAMB 231, 11 uM), 0(±0); in the test on MDA MB 231 cell line (MDAMB 231, 110 uM), 0(±0).
